Measured values as given in patent US11401264B2, “Heterocyclic compound” (Orizuru Therapeutics, Inc., priority 2018, dated 2022).

Test system: cardiomyocytes from double knock-in human iPS cell lines (mCherry at TNNI3 locus)
Assay: Experimental Example 1: mCherry (TNNI3 reporter) immunostaining measured by high contents screening
Type: cell-based
Design: key to average fluorescent intensity (at 30 μM): —: The symbol in Table 2 means that the average fluorescent intensity cannot be evaluated due to cell decrease
Conditions: read on 8th day, Alexa 647 anti-mCherry, control well 797; for average fluorescent intensity (at 1 μM): test compound 1 μM added on 3rd and 6th culture days; for average fluorescent intensity (at 30 μM): test compound 30 μM added on 3rd and 6th culture days
Protocol: For detection of cardiomyocyte maturation, double knock-in human iPS cell lines, in which reporter protein sequences, EmGFP (Sequence Number 1) and mCherry (Sequence Number 2) were inserted into gene loci for TNNI1 and TNNI3, respectively, were prepared (the human iPS cells were prepared from episomal vector (loaded gene; OCT3/4, KLF4, SOX2, L-MYC, LIN28, mouse p53DD) using PBMC (LP_167, Sample ID: 20130318) purchased from CTL (reference literature; Okita K, et al. Stem Cells. 2012 Nov. 29. doi: 10.1002/stem.1293)).
The maintenance culture of the above-mentioned reporter iPS cell lines was carried out by a conventional method (Okita K, et al. Stem Cells. 2012 Nov. 29. doi: 10.1002/stem.1293).
For differentiation induction into cardiomyocytes, the reporter iPS cell lines were treated with 0.5×TrypLE select (Life Technologies, diluted in 1/2 with 0.5 mM EDTA/PBS) for 4 to 5 minutes, and the cells were exfoliated using a cell scraper (IWAKI), and then dissociated into the single cell by pipetting. The medium was removed by centrifugation (1,000 rpm, 5 min), and the obtained cells were seeded on a bioreactor (ABLE) by 1×10^7 cells per 30 mL of the bioreactor, and then cultured in a medium prepared by adding 1% L-glutamine, transferrin 150 μg/mL, ascorbic acid 50 μg/mL (Sigma), monothioglycerol 4×10^−4 M, 10 μM Rock inhibitor (Y-27632), 2 ng/mL BMP4 (R&D) and 0.5% Matrigel (Growth Factor Reduced) to a medium after removal of solution C from StemFit AK02 (AJINOMOTO AK02, 400 mL of solution A and 100 mL of B solution, total 500 mL), at 37° C., under 5% oxygen condition (55 rpm, stirred suspension culture method) to form embryoid bodies (0 day).
Next day (1st day), 9 μL (final concentration 3 ng/mL) of 10 μg/mL activin A, 15 μL (final concentration 5 ng/mL) of 10 μg/mL bFGF and […] (final concentration 10 ng/mL) of 10 μg/mL BMP4 were added to the bioreactor, and the cells were cultured at 37° C. for additional 2 days, under 5% oxygen condition.
Then (3rd day), the obtained embryoid bodies were collected in a 50 mL centrifuge tube, and then subjected to centrifugation (200 g, 1 min). The medium was removed, and the embryoid bodies were cultured in a medium prepared by adding 1% L-glutamine, transferrin 150 μg/mL, ascorbic acid 50 μg/mL (Sigma), monothioglycerol 4×10^−4 M, 10 ng/mL VEGF, 1 μM IWP-3, 0.6 μM dorsomorphin and 5.4 μM SB431542 to a medium after removal of solution C from StemFit AK02 (AJINOMOTO AK02, 400 mL of solution A and 100 mL of B solution, total 500 mL), at 37° C. for 3 days, under 5% oxygen condition (55 rpm, stirred suspension culture method).
Then (6th day), the bioreactor was left to stand to precipitate the embryoid bodies, and 80 to 90% of the medium was removed. A medium prepared by adding 1% L-glutamine, transferrin 150 μg/mL, ascorbic acid 50 μg/mL (Sigma), monothioglycerol […] and 5 ng/mL VEGF to a medium after removal of solution C from StemFit AK02 (AJINOMOTO AK02, 400 mL of solution A and 100 mL of B solution, total 500 mL) was added to the bioreactor so that the total volume became 30 mL, and the embryoid bodies were cultured for 8 days, at 37° C., under 5% oxygen condition (55 rpm, stirred suspension culture method). During the culture, the medium was replaced with a medium under the same conditions every 2 to 3 days.
14th Day after the start of the differentiation induction, the embryoid bodies were treated with 2 mg/mL collagenase type I (Sigma) for 2 hr, and then with 0.25% trypsin/EDTA (Invitrogen) for 10 min. 50% FBS/IMDM (Thermo Fisher Science) was added thereto, and the embryoid bodies were dissociated into the single cell by pipetting, and then subjected to centrifugation (1,000 rpm, 5 minutes). […]

SMILES | average fluorescent intensity (at 1 μM) | average fluorescent intensity (at 30 μM)
O=C1c2ccc(N3CCCCC3)cc2CN1c1ccc2[nH]c(-c3ccccn3)nc2c1 [Example 47, 5-(piperidin-1-yl)-2-(2-(pyridin-2-yl)-1H-benzimidazol-5-yl)isoindolin-1-one] | 1115 | 1348
O=C(COc1ccc(-c2nc3cc(N4Cc5cc(N6CCOCC6)ccc5C4=O)ccc3[nH]2)cc1)NCC1CCOCC1 [Example 30, 2-(4-(5-(5-(morpholin-4-yl)-1-oxo-1,3-dihydro-2H-isoindol-2-yl)-1H-benzimidazol-2-yl)phenoxy)-N-(tetrahydro-2H-pyran-4-ylmethyl)acetamide] | 1005 | 876
O=C(COc1ccc(-c2nc3cc(N4Cc5cc(N6CCOCC6)ccc5C4=O)ccc3[nH]2)cc1)OCc1ccccc1 [Example 52, benzyl (4-(5-(5-(morpholin-4-yl)-1-oxo-1,3-dihydro-2H-isoindol-2-yl)-1H-benzimidazol-2-yl)phenoxy)acetate] | 937 | 973
CN(C)C(=O)COc1ccc(-c2nc3cc(N4Cc5cc(N6CCOCC6)ccc5C4=O)ccc3[nH]2)cc1 [Example 38, N,N-dimethyl-2-(4-(5-(5-(morpholin-4-yl)-1-oxo-1,3-dihydro-2H-isoindol-2-yl)-1H-benzimidazol-2-yl)phenoxy)acetamide] | 1633 | —
O=C(COc1ccc(-c2nc3cc(N4Cc5cc(N6CCCCC6)ccc5C4=O)ccc3[nH]2)cc1)NCC1CC1 [Example 27, N-(cyclopropylmethyl)-2-(4-(5-(1-oxo-5-(piperidin-1-yl)-1,3-dihydro-2H-isoindol-2-yl)-1H-benzimidazol-2-yl)phenoxy)acetamide] | 1821 | —
O=C(COc1ccc(-c2nc3cc(N4Cc5cc(N6CCCCC6)ccc5C4=O)ccc3[nH]2)cc1)Nc1ccc(F)cc1 [Example 19, N-(4-fluorophenyl)-2-(4-(5-(1-oxo-5-(piperidin-1-yl)-1,3-dihydro-2H-isoindol-2-yl)-1H-benzimidazol-2-yl)phenoxy)acetamide] | 1292 | 860
O=C(COc1ccc(-c2nc3cc(N4Cc5cc(N6CCCCC6)ccc5C4=O)ccc3[nH]2)cc1)N1CCS(=O)(=O)C1 [Example 16] | 1366 | 3604
CC(C)(C)OC(=O)N1CCC(c2nc3cc(N4Cc5cc(N6CCCCC6)ccc5C4=O)ccc3[nH]2)CC1 [Example 42, tert-butyl 4-(5-(1-oxo-5-(piperidin-1-yl)-1,3-dihydro-2H-isoindol-2-yl)-1H-benzimidazol-2-yl)piperidine-1-carboxylate] | 980 | 1041
CCOc1ccc(Cc2nc3cc(N4Cc5cc(N6CCOCC6)ccc5C4=O)ccc3[nH]2)cc1 [Example 57, 2-(2-(4-ethoxybenzyl)-1H-benzimidazol-5-yl)-5-(morpholin-4-yl)isoindolin-1-one] | 778 | 1666
CCCNC(=O)COc1ccc(-c2nc3cc(N4Cc5cc(N6CCCCC6)ccc5C4=O)ccc3[nH]2)cc1 [Example 28, 2-(4-(5-(1-oxo-5-(piperidin-1-yl)-1,3-dihydro-2H-isoindol-2-yl)-1H-benzimidazol-2-yl)phenoxy)-N-propylacetamide] | 1540 | —
COCc1ccc(-c2nc3cc(N4Cc5cc(N6CCOCC6)ccc5C4=O)ccc3[nH]2)cc1 [Example 66, 2-(2-(4-(methoxymethyl)phenyl)-1H-benzimidazol-5-yl)-5-(morpholin-4-yl)isoindolin-1-one] | 1338 | 1358
CCOc1ccc(-c2nc3cc(N4Cc5cc(N(C)C)ccc5C4=O)ccc3[nH]2)cc1 [Example 61, 5-(dimethylamino)-2-(2-(4-ethoxyphenyl)-1H-benzimidazol-5-yl)isoindolin-1-one] | 1150 | 
O=C(COc1ccc(-c2nc3cc(N4Cc5cc(N6CCOCC6)ccc5C4=O)ccc3[nH]2)cc1)N1CCCC1 [Example 34, 5-(morpholin-4-yl)-2-(2-(4-(2-oxo-2-(pyrrolidin-1-yl)ethoxy)phenyl)-1H-benzimidazol-5-yl)isoindolin-1-one] | 1540 | —
CC1(O)CCN(C(=O)COc2ccc(-c3nc4cc(N5Cc6cc(N7CCCCC7)ccc6C5=O)ccc4[nH]3)cc2)CC1 [Example 15, 2-(2-(4-(2-(4-hydroxy-4-methylpiperidin-1-yl)-2-oxoethoxy)phenyl)-1H-benzimidazol-5-yl)-5-(piperidin-1-yl)isoindolin-1-one] | 1701 | 2697
CC1(NC(=O)COc2ccc(-c3nc4cc(N5Cc6cc(N7CCCCC7)ccc6C5=O)ccc4[nH]3)cc2)CC1 [Example 18, N-(1-methylcyclopropyl)-2-(4-(5-(1-oxo-5-(piperidin-1-yl)-1,3-dihydro-2H-isoindol-2-yl)-1H-benzimidazol-2-yl)phenoxy)acetamide] | 1272 | 1704
O=C(COc1ccc(-c2nc3cc(N4Cc5cc(N6CCCCC6)ccc5C4=O)ccc3[nH]2)cc1)NC/C=C/CCc1ccccc1 [Example 9, 2-(4-(5-(1-oxo-5-(piperidin-1-yl)-1,3-dihydro-2H-isoindol-2-yl)-1H-benzimidazol-2-yl)phenoxy)-N-((2E)-5-phenylpent-2-en-1-yl)acetamide] | 948 | —
O=C(O)COc1ccc(-c2nc3cc(N4Cc5cc(N6CCCCC6)ccc5C4=O)ccc3[nH]2)cc1 [Example 6, (4-(5-(l-oxo-5-(piperidin-1-yl)-1,3-dihydro-2H-isoindol-2-yl)-1H-benzimidazol-2-yl)phenoxy)acetic acid] | 974 | 987
O=C(COc1ccc(-c2nc3cc(N4Cc5cc(N6CCOCC6)ccc5C4=O)ccc3[nH]2)cc1)N1CCOCC1 [Example 32, 5-(morpholin-4-yl)-2-(2-(4-(2-(morpholin-4-yl)-2-oxoethoxy)phenyl)-1H-benzimidazol-5-yl)isoindolin-1-one] | 1312 | 1937
CCCCCCOc1ccc(-c2nc3cc(N4Cc5cc(N6CCOCC6)ccc5C4=O)ccc3[nH]2)cc1 [Example 54, 2-(2-(4-(hexyloxy)phenyl)-1H-benzimidazol-5-yl)-5-(morpholin-4-yl)isoindolin-1-one] | 838 | —
COc1ccc(-c2nc3cc(N4Cc5ccccc5C4=O)ccc3[nH]2)cc1 [Example 7, 2-(2-(4-methoxyphenyl)-1H-benzimidazol-5-yl)isoindolin-1-one] | 859 | 1631
